Among the data in ChEMBL document CHEMBL1157539, “Thousands of chemical starting points for antimalarial lead identification” (Nature, 2010) are XC50 values, retold here.

Each structure is given as a SMILES string.

For this test, the system named is Plasmodium falciparum. Description: GSK_TCMDC: Inhibition of Plasmodium falciparum 3D7 in whole erythrocytes, using parasite LDH activity as an index of growth. The class given is functional, organism-based. The settings on record: Plasmodium falciparum, 3D7.
Take `CCOc1ccc2c(N/N=C/c3cccc([N+](=O)[O-])c3)cc(C)nc2c1`: the XC50 came to 224 nM.

`COc1cc(Cc2cnc(N)nc2N)cc(OCCCC(=O)O)c1OC` showed an XC50 of 1180 nM.

Take `Cc1nn(CC(C)C)c2sc(C(=O)N3CCN(S(=O)(=O)c4ccc(C#N)cc4)CC3)cc12`: the XC50 amounted to 739 nM.

Regarding `Cn1nc(-c2ccc(CN[C@@H]3CCc4ccc(O)cc43)cc2)c2cnc(NC3CCCC3)nc21`, the XC50 was determined as 1120 nM.

For `COc1ccc2ncc(C)c(CCN3CCC(NCc4ccc5c(n4)NC(=O)CS5)CC3)c2c1`, the XC50 came out at 546 nM.

In turn, `CC1(C)NC(N)=NC(=N)N1OCCCCOc1ccccc1` came in with an XC50 of 3.2 nM.

The molecule `NC(=O)c1cnc2cc(-c3ccncc3)cc(Nc3ccc(NC(=O)C4CCCCC4)cc3)c2c1` had an XC50 of 232 nM.

As for `OC(CNC1CCCCCC1)c1ccc(Cl)c(Cl)c1` (stereo unspecified), the XC50 worked out at 688 nM.

Regarding `NC1=NC(c2ccccc2)N(OCc2ccccc2)C(N)=N1` (stereo unspecified), the XC50 was found to be 43.1 nM.

For the molecule `Cc1cccc(-c2ccc3c(c2)CC(NCc2cccc(-n4ccnc4)c2)C3)c1` (stereo unspecified), the XC50 is 874 nM.

As for `Cc1ccc(O)cc1Nc1ccnc2ccc(-c3cccc(CNCCN(C)C)c3)cc12`, the XC50 was found to be 612 nM.

`Cc1cccc2nc(-c3ccc(-c4cccc(NC(=O)Nc5ccc(Cl)cc5)c4)s3)[nH]c12` returned an XC50 of 517 nM.

In the case of `COc1ccc(O)c(-c2sc(N=C(N)N)nc2-c2ccccc2)c1`, the XC50 amounted to 372 nM.

`c1cncc(CCNCc2cccc(-c3csc(-c4nc5ccccc5[nH]4)c3)c2)c1` displayed an XC50 of 704 nM.

In turn, `Cc1ccc(CON2C(=N)N=C(N)NC2(C)C)cc1C` showed an XC50 of 3.2 nM.

`COc1cccc(NC(=O)[C@H](C(C)C)n2c(=O)[nH]c3ccccc3c2=O)c1` returned an XC50 of 266 nM.

Molecule `COc1ccc(Cc2c(N)nc3nc(N)nc(N)c3c2C)cc1` showed an XC50 of 189 nM.

Molecule `COC(=O)C(Cc1ccccc1)C(CSCc1ccc(OC)cc1)C(=O)N[C@@H](C(=O)OC(C)(C)C)c1ccc(C(C)(C)C)cc1` (stereo partly specified) registered an XC50 of 1030 nM.

Molecule `O=C(Nc1ccccc1)N(Cc1cccc(-c2ccc(CNCCc3ccccc3)cc2)c1)C1CCN(Cc2ccccc2)CC1` yielded an XC50 of 349 nM.

`Cc1ccc2[nH]c(C)cc(=NN=CC=Cc3ccccc3)c2c1` gave an XC50 of 840 nM.

In turn, `CC1CN(c2ccc(NC(=O)c3ccc(F)cc3)cc2)CCN1Cc1cccc(F)c1` (stereo unspecified) registered an XC50 of 1350 nM.

`Oc1ccc(CCNc2nc(NCCCOc3ccccc3-c3cccnc3)nc(N3CCNCC3)n2)cc1` showed an XC50 of 1040 nM.

For the molecule `COc1ccc2[nH]c(C)cc(=NN=Cc3ccncc3)c2c1`, the XC50 was determined as 697 nM.

Molecule `COc1ccc(Nc2nccc(-c3cccc(NC(=O)c4cc5cc(F)ccc5[nH]4)c3)n2)cc1` registered an XC50 of 1030 nM.

The molecule `COc1ccc(-c2ccc(NC(=O)c3ccc(C#N)cc3)cc2)cc1CN(C)CCN(C)C` displayed an XC50 of 663 nM.

`OCC1CCN(Cc2ccc(-c3ccc(-c4nc5cc(C(F)(F)F)ccc5[nH]4)cc3)cc2)CC1` registered an XC50 of 697 nM.

`OCCN1CCN(Cc2ccc(-c3cccc(-c4nc5cc(C(F)(F)F)ccc5[nH]4)c3)cc2)CC1` registered an XC50 of 642 nM.

`Cc1sc2ncnc(Sc3nc4ccccc4[nH]3)c2c1C` had an XC50 of 255 nM.

Molecule `COc1ccc2c(c1C1CCN(CCCCNC(=O)c3ccc(NC(=O)c4ccc(Cl)cc4)cc3)CC1)CCCC2` came in with an XC50 of 341 nM.

Consider `Cc1cccc2nc(-c3ccc(-c4ccc(CNCc5ccc(CN)cc5)cc4)cc3)[nH]c12`, for which the XC50 worked out at 721 nM.

Turning to `Cc1nc(N)nc(N)c1OCCCOc1ccccc1Br`, the XC50 came to 4.1 nM.

Consider `COc1c(C2CCN(CCCCNC(=O)C=Cc3cc4cc(Cl)ccc4o3)CC2)ccc2c1CCCC2`, for which the XC50 was 1310 nM.

In turn, `CCCCCCNC(=N)c1ccc(OCCCCCOc2ccc(C(=N)NCCCCCC)cc2)cc1` displayed an XC50 of 309 nM.

`COc1cccc(-c2cc(C(F)(F)F)n3ncc(C(=O)Nc4cc(C)ccc4O)c3n2)c1` yielded an XC50 of 159 nM.

Consider `N[C@@H](CCNCc1ccc(-c2cccnc2)cc1)Cc1ccc(F)c(F)c1`, for which the XC50 was 797 nM.

With `O=C(/C=C/c1ccc(Cl)c(Cl)c1)NCCCCCCN1CCCN(C(=O)Nc2ccc(Cl)c(C(F)(F)F)c2)CC1`, the XC50 came to 565 nM.

Take `CCOc1cc(C(=O)NCC2CCN(CC3CCCCC3)CC2)ccc1-c1nc2cc(Cl)ccc2[nH]1`: the XC50 was 563 nM.

In the case of `Cc1cc(N[C@@H](CC(C)C)C(=O)NCCOc2ccccc2)nc(NCCOc2ccccc2)n1`, the XC50 was found to be 1490 nM.

Take `COc1ccc(-c2ccc(NC(=O)c3cccc(C#N)c3)cc2)cc1CN1CCC(O)CC1`: the XC50 was determined as 821 nM.

For `CCCCN1C(=N)NC(c2ccccc2)(c2ccccc2)C1=O`, the XC50 is 1030 nM.

As for `CC[C@H](C)CNC(=O)c1cncc(-c2ccc(CNCCCc3ccccc3)cc2)c1`, the XC50 amounted to 735 nM.

In turn, `CC(C)COc1ccc(Cl)cc1Cc1nc(-c2nc3ccc(CN4CCN(C)CC4)cc3[nH]2)co1` had an XC50 of 912 nM.

`CC1(C)CC(NC(=O)NC2CCN(Cc3ccccc3)CC2)CC(C)(CNC(=O)NC2CCN(Cc3ccccc3)CC2)C1` (stereo unspecified) had an XC50 of 946 nM.

In turn, `Cc1cc(C)c(C)c(S(=O)(=O)N2CCCCC(c3ccc(F)c(F)c3)=N2)c1C` returned an XC50 of 706 nM.

In turn, `O=C(NC1CCN(Cc2ccccc2)CC1)c1cc(C(=O)NC2CCN(Cc3ccccc3)CC2)cc(C(=O)NC2CCN(Cc3ccccc3)CC2)c1` yielded an XC50 of 1040 nM.

The molecule `O=C(NC1CCC(CN2CCC(c3c[nH]c4ccccc34)CC2)CC1)c1ccc(-c2ccccc2[N+](=O)[O-])o1` (stereo unspecified) yielded an XC50 of 772 nM.

With `COc1cc(Nc2nccc(N3CCC(NC(=O)Nc4ccc5c(c4)OCO5)C3)n2)cc(OC)c1OC` (stereo unspecified), the XC50 turned out to be 761 nM.

The molecule `CC(C)(C)c1ccc(C(=O)N2CCC3(CC2)C(=O)N(CC(=O)NCC2CCCO2)CN3c2ccccc2)cc1` (stereo unspecified) gave an XC50 of 231 nM.

On to `COc1ccc(CCn2c(=N)c(C(=O)NCc3ccccc3)cc3c(=O)n4ccccc4nc32)cc1`, for which the XC50 was 751 nM.

Regarding `COc1ccccc1NC(=O)Nc1cccc(-c2ccc(-c3nc4cc(C(F)(F)F)ccc4[nH]3)cc2)c1`, the XC50 turned out to be 306 nM.

`O=C(CN(c1cccc(C(F)(F)F)c1)S(=O)(=O)c1ccc(Cl)cc1)NCCC(c1ccccc1)c1ccccc1` gave an XC50 of 743 nM.

`c1cc2[nH]c(CCCCc3nc4cc(C5=N[C@H]6CCCC[C@H]6N5)ccc4[nH]3)nc2cc1C1=N[C@H]2CCCC[C@H]2N1` had an XC50 of 415 nM.

Consider `CCn1c(Sc2ccc(C#N)c([N+](=O)[O-])c2)nnc1-c1ccc(OC)cc1`, for which the XC50 stood at 805 nM.

With `COc1ccc(NC(=O)[C@H](CC(C)C)Nc2ccnc(Nc3ccccc3)n2)cc1`, the XC50 worked out at 1570 nM.

`COc1ccccc1CN1CCC(NC(=O)c2ccc(-c3cccc(C(F)(F)F)c3)s2)CC1`: the XC50 is 1310 nM.

In turn, `Cc1cc(C)c(S(=O)(=O)N2CCCCC(c3cccc(C(F)(F)F)c3)=N2)c(C)c1` showed an XC50 of 456 nM.

In turn, `Cc1cc(=NN=Cc2cccc(F)c2)c2ccc(F)cc2[nH]1` yielded an XC50 of 229 nM.

`COc1cc2nc(NCCc3ccccc3)nc(NCc3ccc(C#N)cc3)c2cc1OC`: the XC50 worked out at 145 nM.

Consider `COc1cc(-c2[nH]c(-c3ccc(OCCN(C)C)cc3)cc2-c2ccncc2)ccc1Cl`, for which the XC50 amounted to 1790 nM.

With `COc1ccc(OCCCN2CCCCC2)cc1S(=O)(=O)c1ccc(OCc2ccc(C(F)(F)F)cc2)cc1`, the XC50 was 1010 nM.

In the case of `CN1CCc2cc(Br)c(O)cc2C1Cc1ccccc1Cl` (stereo unspecified), the XC50 is 667 nM.

Consider `COc1ccc(C(=O)Nc2cc(Br)c3c(c2)CNCC3)cc1C(F)(F)F`, for which the XC50 was 1070 nM.

Turning to `OC1(c2ccccc2)c2cc(Cl)ccc2OC1c1nc2c(Cl)ccc(Cl)c2o1` (stereo unspecified), the XC50 was 301 nM.

In the case of `O=C(Cc1ccccc1)NC(c1ccccc1)c1ccc2cccnc2c1O` (stereo unspecified), the XC50 is 952 nM.

`Nc1nc(Cc2ccc(Cl)cc2)nc(Cc2ccc(Cl)cc2)n1` returned an XC50 of 929 nM.

`Cc1ccc(Oc2ccccc2NC(=O)CCc2nc3ccccc3c(=O)[nH]2)cc1` gave an XC50 of 827 nM.

In turn, `CN(Cc1c(Cl)cnn1C)S(=O)(=O)c1ccc2ccccc2c1` came in with an XC50 of 1040 nM.

With `CCOc1ccc(OCC(=O)Nc2nc(-c3ccc(OC)cc3)c(C)s2)cc1`, the XC50 turned out to be 220 nM.

Take `COc1ccc(CNCc2ccc(-c3ccc(-c4nc5cccc(C)c5[nH]4)cc3)cc2)cc1`: the XC50 amounted to 341 nM.

On to `OCCN1CCN(Cc2cccc(-c3ccc(-c4nc5cc(C(F)(F)F)ccc5[nH]4)cc3)c2)CC1`, for which the XC50 came out at 559 nM.

In turn, `C(=N\Nc1nccc2sc(-c3ccccc3)cc12)/c1cccnc1` returned an XC50 of 821 nM.

The molecule `O=C(/C=C/c1ccc(Cl)c(Cl)c1)NCCCCN1CCCN(C(=O)Nc2cc(Cl)cc(Cl)c2)CC1` registered an XC50 of 949 nM.

As to `Cc1cccc2nc(-c3ccc(-c4cccc(NC(=O)COc5ccccc5C(N)=O)c4)s3)[nH]c12`, the XC50 came to 734 nM.

The molecule `Cc1cc(Cl)c(S(=O)(=O)N(C)c2ccccc2)cc1OCC(=O)NC1CCCCC1` displayed an XC50 of 296 nM.

On to `CC(C)(C)c1nn(-c2ccc(Cl)cc2)c2[nH]c(=O)c(CNC3CCCC3)cc12`, for which the XC50 worked out at 234 nM.

For `CCOc1ccc(C2CCN(CCCCNC(=O)c3ccc(NC(=O)c4ccc(Cl)cc4)cc3)CC2)c(OCC)c1`, the XC50 is 677 nM.

As for `CC(C)N1CCN(C(=O)c2ccc(CNCCCN3CCN(c4cccc(Cl)c4Cl)CC3)o2)CC1`, the XC50 is 737 nM.

`Cc1ccc2[nH]c3c(NCCCN4CCOCC4)ncnc3c2c1` registered an XC50 of 942 nM.

The molecule `Oc1ccc(CCNc2nc(NCCOc3ccccc3-c3ccccc3)nc(N3CCNCC3)n2)cc1` had an XC50 of 1040 nM.

In the case of `CN1CCCN(Cc2ccc(-c3ccc(NC(=O)c4ccc(Cl)cc4)cc3)cc2)CC1`, the XC50 came out at 895 nM.

The molecule `O=C(/C=C/c1ccc(F)cc1)NC1CCC(CCN2CCc3ccc(-n4cccn4)cc3CC2)CC1` (stereo unspecified) registered an XC50 of 1440 nM.

On to `CC(Oc1cccc(Cl)c1)C(=O)N1CCc2ccccc21` (stereo unspecified), for which the XC50 turned out to be 512 nM.

Take `CC(C)C[C@H](NC(=O)c1cc2cc(OCCN3CCNCC3)ccc2o1)C(=O)NC1CC[C@@H](C)N(C(=O)Nc2ccc(Cl)cc2)CC1=O` (stereo partly specified): the XC50 came to 382 nM.

For `Fc1ccc2[nH]c(-c3cccc(-c4cccc(CNCCc5ccncc5)c4)c3)nc2c1`, the XC50 worked out at 170 nM.

Consider `Cc1ccc(C)c(NC(=O)Nc2ccc(C)c(-c3ccc(C(=O)Nc4ccncc4)cc3)c2)c1`, for which the XC50 is 618 nM.

On to `Cc1cc(C)cc(-n2c(C)cc(/C=C3\SC(=Nc4ccc(Cl)cc4)NC3=O)c2C)c1`, for which the XC50 stood at 65.8 nM.
